For 34 molecules, inhibition and IC50 results are on record in the COVID Moonshot data (paper PMC11187573), “Identification of SARS-CoV-2 Mpro inhibitors through deep reinforcement learning for de novo drug design and computational chemistry approaches” (RSC Medicinal Chemistry, 2024).

In this assay the target is SARS-CoV-2 Main Protease (SARS-CoV-2) (UniProt P0DTD1).

With `Nc1cc(C(F)(F)F)c(-c2nc(N3CCOCC3)nc(N3CCOCC3)n2)cn1`, the inhibition is, setting by setting: (20.0 µM) 5.19%; (50.0 µM) 5.97%.
As to `CC(C)Cn1cc(NC(=O)N2CCCN(Cc3ccccc3F)C2)c2ccccc2c1=O`, the inhibition reads like this: (20.0 µM) -1.37%; (50.0 µM) -3.78%.
With `Cc1ccncc1NC(=O)N(C)c1cccc(Cl)c1`, the inhibition came out at 17.6% (20.0 µM) and 33.8% (50.0 µM).
On to `Cc1[nH]c2ncnc(NC(=O)C3CCN(c4ccc(Cl)cn4)CC3)c2c1C`, for which the inhibition by setting is: (20.0 µM) -8.15%; (50.0 µM) -5.21%.
For the molecule `Cn1cc(NC(=O)NCc2ccccn2)c2ccccc2c1=O`, the inhibition (20.0 µM) was -2.84% and the inhibition (50.0 µM) was -6.9%.
The molecule `Cc1ccc2nc(Nc3cc(Cl)cc(CC(=O)Nc4cncc5ccccc45)c3)sc2c1` showed an IC50 of 450 nM.
For the molecule `O=C1C(Nc2ncnc3[nH]cnc23)CCN1Cc1ccccc1` (configuration not stated), the inhibition reads like this: (20.0 µM) -6.26%; (50.0 µM) -5.36%.
For the molecule `Cn1cc(NC(=O)NCCc2ccsc2)c2ccccc2c1=O`, the inhibition is, setting by setting: (20.0 µM) 14.5%; (50.0 µM) 8.36%.
For `COc1cccc2[nH]c(=O)cc(C(=O)NCCOc3ccccc3OCC3CC3)c12`, the concentration for half-maximal inhibition (IC50) was 1920 nM.
As for `C[C@@H]1CC[C@@H](c2ccoc2)N2C1CC[C@@]1(CS[C@@]3(CC[C@H]4[C@H](C)CC[C@@H](c5ccoc5)N4[C@@H]3O)C1)[C@@H]2O` (stereo in doubt), the inhibition is -19.4% (20.0 µM) and -23.4% (50.0 µM).
For the molecule `Cn1cc(NC(=O)NCCCN2CCc3ccccc3C2)c2ccccc2c1=O`, the inhibition is -2.25% (20.0 µM) and 1.39% (50.0 µM).
In the case of `Cc1[nH]c2ncnc(NC(=O)c3cc4ccccc4c(=O)o3)c2c1C`, the inhibition was -7.32% (20.0 µM) and -4.98% (50.0 µM).
In the case of `O=C(Nc1nncn1C1CC1)C1CCOc2c(F)cccc21` (configuration not stated), the inhibition is, setting by setting: (20.0 µM) 2.37%; (50.0 µM) 3.56%.
As to `CCN(CC)S(=O)(=O)c1ccc(NC(=O)Nc2cn(C)c(=O)c3ccccc23)cc1`, the inhibition was 0.771% (20.0 µM) and -1.21% (50.0 µM).
In the case of `Cc1ccncc1CC(=O)Nc1cccc2c1CNCC2`, the inhibition reads like this: (20.0 µM) -1.08%; (50.0 µM) 2.76%.
The matching figures for `CCc1ccccc1N(CC)C(=O)Nc1cn(C)c(=O)c2ccccc12`: -3.06% and 22.3%.
As to `CC(C)Cn1cc(NC(=O)NCCN2CCOCC2)c2ccccc2c1=O`, the inhibition (20.0 µM) is -1.08% and the inhibition (50.0 µM) is -1.81%.
For `CC1Cn2nccc2CN1C(=O)CC1(C(=O)Nc2cncc3ccccc23)CCOc2ccc(Cl)cc21` (configuration not stated), the IC50 came out at 2110 nM.
On to `CC(C)(C)c1ccc(N(C(=O)c2cccnc2)C(C(=O)NCCc2cccc(F)c2)c2cccnc2)cc1` (configuration not stated), for which the inhibition runs as follows: (20.0 µM) -5.55%; (50.0 µM) -6.34%.
`COc1cc(Cl)nc(Nc2cc(Cl)cc(CC(=O)Nc3cncc4ccccc34)c2)n1` came in with a concentration for half-maximal inhibition (IC50) of 504 nM.
For `CC(C)Cn1cc(NC(=O)NCCCN2CCCC2=O)c2ccccc2c1=O`, the inhibition by setting is: (20.0 µM) -2.54%; (50.0 µM) 3.77%.
On to `CC(C)Cn1cc(NC(=O)Nc2cccnc2)c2ccccc2c1=O`, for which the inhibition (20.0 µM) came out at 6.1% and the inhibition (50.0 µM) was determined as 6.63%.
The matching figures for `O=C(O)CNC(=O)c1ncc(-c2cccc(Cl)c2)cc1O`: 1.43% and -1.75%.
Regarding `O=C(O)C12CC(CNCc3ccc4c(c3)OCC4)(C1)OC2c1ccccc1` (configuration not stated), the inhibition runs as follows: (20.0 µM) -3.12%; (50.0 µM) -4.27%.
For `Cn1ccc(CN(C(=O)Cc2cccnc2)c2ccc(-c3ccccn3)cc2)n1`, in that order: 6.62% and 16.1%.
For `Cn1cnc(CN(C(=O)c2cnnn2-c2ccccc2)c2ccc(OCc3ccccc3)cc2)c1`, in that order: -1.63% and 1.89%.
Regarding `O=C(COc1ccccc1F)Nc1ncnc2[nH]cnc12`, the inhibition (20.0 µM) was -6.54% and the inhibition (50.0 µM) is -3.69%.
Take `O=C(Nc1cncc2ccccc12)[C@@H]1CCNc2cc(Cl)c(Cl)cc21` (stereo in doubt): the IC50 was found to be 50 nM.
With `NCc1cn(CC(=O)N(Cc2ccsc2)c2ccc(N3CCOCC3)cc2)nn1`, the inhibition (20.0 µM) is -4.16% and the inhibition (50.0 µM) is -1.29%.
As to `CCOC(=O)Cc1csc(NC(=O)Nc2cn(CC(C)C)c(=O)c3ccccc23)n1`, the inhibition stood at 23.2% (20.0 µM) and 2.55% (50.0 µM).
For `C[C@@H]1COCCN1c1cc(C2([S@](C)(=N)=O)CC2)nc(-c2cncc3[nH]ccc23)n1` (stereo in doubt), in that order: -0.821% and 3.82%.
As to `C[C@@H](Cn1ccc(-c2ccc(C#N)c(Cl)c2)n1)NC(=O)c1cc([C@@H](C)O)[nH]n1` (stereo in doubt), the inhibition is, setting by setting: (20.0 µM) 3.16%; (50.0 µM) -11.9%.
Take `COc1cc(Br)ccc1Nc1cc(Cl)cc(CC(=O)Nc2cncc3ccccc23)c1`: the IC50 worked out at 1390 nM.
`CN(C)C(=O)c1cc2cnc(Nc3ccc(N4CCNCC4)cn3)nc2n1C1CCCC1`: the inhibition is, setting by setting: (20.0 µM) -3.84%; (50.0 µM) -4.06%.

For orientation: inhibition means the drop in the measured response relative to a control, in per cent. The IC50 is the point on the concentration scale where inhibition reaches its midpoint. A low value points to greater potency in that assay.
